Paper PMC2982820, “Characterisation of PduS, the pdu Metabolosome Corrin Reductase, and Evidence of Substructural Organisation within the Bacterial Microcompartment” (PLoS ONE, 2010)

T1: PduS (Citrobacter freundii, UniProt B1VB77)
T1 construct: full length, N-terminal hexa-His tag (pET14b, pJP024; template pAR3114), E. coli BL21(DE3)pLysS; FMN and two [4Fe-4S] when purified anaerobically
T1 sequence (B1VB77 1-451): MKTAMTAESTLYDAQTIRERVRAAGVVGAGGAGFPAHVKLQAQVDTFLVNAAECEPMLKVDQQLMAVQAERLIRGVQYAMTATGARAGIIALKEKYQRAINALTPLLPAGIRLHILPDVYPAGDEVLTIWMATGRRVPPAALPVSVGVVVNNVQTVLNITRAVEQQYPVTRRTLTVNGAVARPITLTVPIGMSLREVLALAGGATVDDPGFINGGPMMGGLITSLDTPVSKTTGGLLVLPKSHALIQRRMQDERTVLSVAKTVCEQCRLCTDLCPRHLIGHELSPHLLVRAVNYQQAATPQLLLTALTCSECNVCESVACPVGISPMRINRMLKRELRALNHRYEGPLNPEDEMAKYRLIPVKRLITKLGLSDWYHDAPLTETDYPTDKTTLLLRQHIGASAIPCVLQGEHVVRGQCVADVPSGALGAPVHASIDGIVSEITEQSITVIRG

B1: PduS (Citrobacter freundii) (protein)
chain: T1 sequence (B1VB77 1-451)
notes: full length, N-terminal hexa-His tag (pET14b, pJP024; template pAR3114), E. coli BL21(DE3)pLysS; FMN and two [4Fe-4S] when purified anaerobically

Experiments:
PduS = molecular target: T1, PduS; assay: heat release of bound flavin, RP-HPLC-MS against FMN and FAD standards; format: binding; conditions: non-covalently bound, co-purified
purified protein = substrate: NC(=O)C1=CN([C@@H]2O[C@H](COP(=O)(O)OP(=O)(O)OC[C@H]3O[C@@H](n4cnc5c(N)ncnc54)[C@H](O)[C@@H]3O)[C@@H](O)[C@H]2O)C=CC1; assay: purified protein; format: biochemical, Citrobacter freundii; conditions: cob(III)alamin as co-substrate, 20 mM Tris-HCl pH 8.0, 37 °C, anaerobic

Molecule | heat release of bound flavin, RP-HPLC-MS against FMN and FAD standards (PduS) | Km (purified protein)
Cc1cc2nc3c(=O)[nH]c(=O)nc-3n(C[C@H](O)[C@H](O)[C@H](O)COP(=O)(O)O)c2cc1C [FMN] | flavin extracted from PduS was found to have a retention time identical to authentic FMN | –
B1 | – | 24.7 µM
